From US8022248B2, “Substituted acids for the treatment of respiratory diseases” (AstraZeneca AB, priority 2004, dated 2011) come the findings set out here.

In this experiment the target is T1, rhCRTh2 (Homo sapiens, UniProt Q9Y5Y4).
T1 construct: expressed in transfected cells; host or cells: HEK cells (membrane preparation)
T1 sequence (Q9Y5Y4 1-395): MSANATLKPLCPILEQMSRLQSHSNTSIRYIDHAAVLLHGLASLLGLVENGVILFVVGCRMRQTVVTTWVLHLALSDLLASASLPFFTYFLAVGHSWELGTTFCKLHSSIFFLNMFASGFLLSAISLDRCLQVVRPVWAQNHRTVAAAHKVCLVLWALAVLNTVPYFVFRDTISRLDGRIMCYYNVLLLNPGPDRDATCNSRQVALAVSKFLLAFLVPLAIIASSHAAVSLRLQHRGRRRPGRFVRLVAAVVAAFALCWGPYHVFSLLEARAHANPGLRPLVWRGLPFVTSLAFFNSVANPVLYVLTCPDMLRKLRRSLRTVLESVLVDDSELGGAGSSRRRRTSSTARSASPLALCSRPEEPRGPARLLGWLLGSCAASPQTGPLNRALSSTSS
The experiment can be described thus: Ligand binding assay: [3H]PGD2 binding to HEK cell membranes containing CRTh2 (SPA beads). The conditions noted are these: [3H]PGD2 displacement, HEK cell membranes expressing rhCRTh2/Gα16, 2 hours room temperature. The protocol:
[^3H]PGD2 was purchased from Perkin Elmer Life Sciences with a specific activity of 100-210 Ci/mmol. All other chemicals were of analytical grade.
HEK cells expressing rhCRTh2/Gα16 were routinely maintained in DMEM containing 10% Foetal Bovine Serum (HyClone), 1 mg/ml geneticin, 2 mM L-glutamine and 1% non-essential amino acids. For the preparation of membranes, the adherent transfected HEK cells were grown to confluence in two layer tissue culture factories (Fisher, catalogue number TKT-170-070E). Maximal levels of receptor expression were induced by addition of […] sodium butyrate for the last 18 hours of culture. The adherent cells were washed once with phosphate buffered saline (PBS, 50 ml per cell factory) and detached by the addition of 50 ml per cell factory of ice-cold membrane homogenisation buffer [20 mM HEPES (pH 7.4), 0.1 mM dithiothreitol, 1 mM EDTA, 0.1 mM phenyl methyl sulphonyl fluoride and 100 μg/ml bacitracin]. […] The final pellet was re-suspended in 4 ml of membrane homogenisation buffer per cell factory used and the protein content determined. […]
All assays were performed in Corning clear bottomed, white 96-well NBS plates (Fisher). […] (The optimum coating concentrations were determined for each batch of membranes) The beads were pelleted by centrifugation (800×g for 7 minutes at 4° C.), washed once with assay buffer (50 mM HEPES pH 7.4 containing 5 mM magnesium chloride) and finally re-suspended in assay buffer at a bead concentration of 10 mg/ml.
Each assay contained 20 μl of 6.25 nM [^3H]PGD2, 20 μl membrane saturated SPA beads both in assay buffer and 10 μl of compound solution or 13,14-dihydro-15-keto prostaglandin D2 (DK-PGD2, for determination of non-specific binding, Cayman chemical company). […] The assay plate was incubated at room temperature for 2 hours and counted on a Wallac Microbeta liquid scintillation counter (1 minute per well).
In general, IC50 refers to the concentration at which inhibition is half-maximal. High values mean a need for much substance, low ones inhibition by little substance. In turn, `CCS(=O)(=O)c1ccc(Sc2cc(Cl)ccc2SCC(=O)O)c(Cl)c1` [Example 5, [(4-Chloro-2-{[2-chloro-4-(ethylsulfonyl)phenyl]thio}phenyl)thio]acetic acid] showed an IC50 of 2.51 nM.
The molecule `CCS(=O)(=O)c1ccc(Oc2cc(Cl)ccc2SCC(=O)O)c(Cl)c1` [Example 7, ({4-Chloro-2-[2-chloro-4-(ethylsulfonyl)phenoxy]phenyl}thio)acetic acid] gave an IC50 of 0.794 nM.
Take `CCS(=O)(=O)Nc1ccc(Oc2cc(Cl)ccc2NCC(=O)O)c(Cl)c1` [Example 37, N-(4-Chloro-2-{2-chloro-4-[(ethylsulfonyl)amino]phenoxy}phenyl)glycine]: the IC50 was 2.51 nM.
